Source: patent publication US8471005B2 (Cephalon, Inc., priority 2008, dated 2013)
Like-named read-outs stand apart in the source and are kept apart here.

Assays:
[1] = target: T1, ALK (Homo sapiens, UniProt Q9UM73); test: ALK Kinase Assay (ELISA/TRF, PLC-γ substrate); assay type: biochemical; details: read-out: ALK Potency
T1 construct: host or cells: baculovirus expression system
Procedure, shortened: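 Read-out is time-resolved fluorescence from a Eu-N1-labeled PT66 antibody that binds phosphorylated PLC-γ, the substrate coated at 10 μg/mL in TBS. ALK at 30 ng/ml starts the reaction, which runs 15 minutes at 37° C.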

[2] = target: T2, JAK2 (Homo sapiens, UniProt O60674); test: Recombinant Human JAK2 Kinase Assay (TRF); assay type: biochemical; details: read-out: JAK2 Potency
T2 construct: host or cells: baculovirus expression system
T2 sequence (O60674 whole entry): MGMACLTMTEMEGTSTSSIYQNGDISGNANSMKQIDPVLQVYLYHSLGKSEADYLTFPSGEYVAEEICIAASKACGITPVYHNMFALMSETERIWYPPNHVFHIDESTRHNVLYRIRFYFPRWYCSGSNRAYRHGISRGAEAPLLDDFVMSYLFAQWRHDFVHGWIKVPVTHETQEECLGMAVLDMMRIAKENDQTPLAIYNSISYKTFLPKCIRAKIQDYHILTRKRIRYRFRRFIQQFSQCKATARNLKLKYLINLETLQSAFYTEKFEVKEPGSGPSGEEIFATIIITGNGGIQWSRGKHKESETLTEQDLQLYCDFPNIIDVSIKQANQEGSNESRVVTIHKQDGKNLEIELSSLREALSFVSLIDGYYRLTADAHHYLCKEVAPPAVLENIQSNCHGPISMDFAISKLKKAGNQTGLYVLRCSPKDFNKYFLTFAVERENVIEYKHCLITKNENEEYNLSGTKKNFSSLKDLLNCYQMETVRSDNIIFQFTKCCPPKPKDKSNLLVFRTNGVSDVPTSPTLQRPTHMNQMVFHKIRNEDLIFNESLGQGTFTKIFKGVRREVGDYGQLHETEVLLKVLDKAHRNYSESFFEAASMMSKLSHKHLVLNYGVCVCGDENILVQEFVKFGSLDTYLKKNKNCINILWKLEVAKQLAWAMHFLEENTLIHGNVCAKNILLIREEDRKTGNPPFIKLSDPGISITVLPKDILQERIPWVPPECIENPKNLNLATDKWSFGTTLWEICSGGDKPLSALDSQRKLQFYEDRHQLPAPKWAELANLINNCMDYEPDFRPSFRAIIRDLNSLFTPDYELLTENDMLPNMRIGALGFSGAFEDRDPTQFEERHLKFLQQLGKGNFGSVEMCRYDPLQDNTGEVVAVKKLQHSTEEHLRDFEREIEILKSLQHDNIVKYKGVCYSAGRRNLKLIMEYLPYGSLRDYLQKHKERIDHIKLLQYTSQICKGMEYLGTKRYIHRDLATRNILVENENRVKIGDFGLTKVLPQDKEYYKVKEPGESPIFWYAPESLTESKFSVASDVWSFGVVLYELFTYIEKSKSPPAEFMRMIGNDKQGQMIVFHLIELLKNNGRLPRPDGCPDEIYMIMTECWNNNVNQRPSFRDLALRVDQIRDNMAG
Procedure, shortened: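 Baculovirus-expressed JAK2 (15 ng/ml) phosphorylated a biotinylated 15-mer peptide captured on Neutravidin, in 20 mM HEPES pH 7.2, 0.2 μM ATP, 1 mM MnCl2, 0.1% BSA, 2.5% DMSO final, 20 min at room temperature. Phosphoproduct detected by time-resolved fluorescence with Eu-N1-labelled PY100 antibody.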

[3] = ALK kinase inhibition, 1 μM ATP
[4] = JAK2 kinase inhibition, 0.2 μM ATP

T1 sequence (Q9UM73 19-1620): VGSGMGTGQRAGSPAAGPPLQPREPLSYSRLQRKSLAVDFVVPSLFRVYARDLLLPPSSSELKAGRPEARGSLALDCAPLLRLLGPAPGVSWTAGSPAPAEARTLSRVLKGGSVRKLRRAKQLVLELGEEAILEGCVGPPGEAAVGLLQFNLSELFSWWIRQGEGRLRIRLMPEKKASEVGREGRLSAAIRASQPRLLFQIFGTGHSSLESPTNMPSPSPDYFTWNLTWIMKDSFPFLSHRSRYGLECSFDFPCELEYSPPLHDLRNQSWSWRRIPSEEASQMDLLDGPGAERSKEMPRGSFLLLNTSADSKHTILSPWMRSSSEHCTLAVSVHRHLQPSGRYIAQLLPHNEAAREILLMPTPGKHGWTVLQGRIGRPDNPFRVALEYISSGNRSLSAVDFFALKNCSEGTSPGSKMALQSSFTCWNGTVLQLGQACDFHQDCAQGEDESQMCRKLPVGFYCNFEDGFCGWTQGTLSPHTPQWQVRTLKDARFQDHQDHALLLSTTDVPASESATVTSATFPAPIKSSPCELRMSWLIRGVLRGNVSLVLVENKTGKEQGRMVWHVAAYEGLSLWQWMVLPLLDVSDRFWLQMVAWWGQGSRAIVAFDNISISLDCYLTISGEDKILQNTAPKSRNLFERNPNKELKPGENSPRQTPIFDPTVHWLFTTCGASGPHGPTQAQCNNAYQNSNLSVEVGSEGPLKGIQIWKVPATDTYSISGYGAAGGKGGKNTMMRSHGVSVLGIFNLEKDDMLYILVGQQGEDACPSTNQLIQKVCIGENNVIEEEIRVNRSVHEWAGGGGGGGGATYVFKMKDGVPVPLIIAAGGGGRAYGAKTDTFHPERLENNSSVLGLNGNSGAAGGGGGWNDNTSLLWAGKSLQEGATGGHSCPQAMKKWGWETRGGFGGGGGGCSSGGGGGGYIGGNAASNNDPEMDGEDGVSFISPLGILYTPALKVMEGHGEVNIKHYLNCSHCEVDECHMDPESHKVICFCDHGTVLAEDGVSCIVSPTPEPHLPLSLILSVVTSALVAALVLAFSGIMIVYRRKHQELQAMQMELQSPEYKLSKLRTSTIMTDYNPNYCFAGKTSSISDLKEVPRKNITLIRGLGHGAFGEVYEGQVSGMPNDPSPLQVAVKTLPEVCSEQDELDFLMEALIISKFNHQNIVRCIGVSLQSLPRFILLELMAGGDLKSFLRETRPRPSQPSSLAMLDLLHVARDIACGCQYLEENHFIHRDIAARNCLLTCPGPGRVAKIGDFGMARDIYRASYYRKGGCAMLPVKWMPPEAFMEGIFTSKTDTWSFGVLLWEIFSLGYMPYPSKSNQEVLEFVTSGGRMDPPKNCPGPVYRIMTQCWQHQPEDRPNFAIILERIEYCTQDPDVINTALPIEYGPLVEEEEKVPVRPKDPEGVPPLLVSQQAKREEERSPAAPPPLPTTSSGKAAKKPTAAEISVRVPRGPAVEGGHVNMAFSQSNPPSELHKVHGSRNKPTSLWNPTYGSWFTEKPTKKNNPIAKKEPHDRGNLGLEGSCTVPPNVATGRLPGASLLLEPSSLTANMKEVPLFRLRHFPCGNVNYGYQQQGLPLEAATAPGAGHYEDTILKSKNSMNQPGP

IC50 ([1]; ALK Kinase Inhibition) [nM] | IC50 ([2]; JAK2 Kinase Inhibition) [nM] | IC50 [1, 3] [nM] | IC50 [2, 4] [nM] | Compound
> 10000 | 100 to 1000 |  |  | c1cc(Nc2ncc3cccn3n2)cc(N2CCOCC2)c1 [Example 174, (3-Morpholin-4-yl-phenyl)-pyrrolo[2,1-f][1,2,4]triazin-2-yl-amine]
 |  | 1000 to 10000 | < 100 | COc1ccc(-c2ccc3cnc(Nc4ccc5c(c4)CN(CC(N)=O)CC5)nn23)cn1 [Example 986, 2-{7-[7-(6-Methoxy-pyridin-3-yl)-pyrrolo[2,1-f][1,2,4]triazin-2-ylamino]-3,4-dihydro-1H-isoquinolin-2-yl}-acetamide]
 |  | < 100 | 1000 to 10000 | COc1cc(C2CCN(CC(N)=O)CC2)ccc1Nc1ncc2ccc(-c3cc(F)ccc3N(C)S(C)(=O)=O)n2n1 [Example 1282, 2-[4-(4-{7-[5-Fluoro-2-(methanesulfonyl-methyl-amino)-phenyl]-pyrrolo[2,1-f][1,2,4]triazin-2-ylamino}-3-methoxy-phenyl)-piperidin-1-yl]-acetamide]
 |  | 1000 to 10000 | < 100 | Cn1cc(-c2ccc3cnc(Nc4ccc5c(c4)NC(=O)C5)nn23)cn1 [Example 646, 6-[7-(1-Methyl-1H-pyrazol-4-yl)-pyrrolo[2,1-f][1,2,4]triazin-2-ylamino]-1,3-dihydro-indol-2-one]
 |  | 100 to 1000 | < 100 | CCN(CC)C1CCN(c2ccc(Nc3ncc4ccc(-c5ccc(OC)nc5)n4n3)cc2)CC1 [Example 1206, [4-(4-Diethylamino-piperidin-1-yl)-phenyl]-[7-(6-methoxy-pyridin-3-yl)-pyrrolo[2,1-f][1,2,4]triazin-2-yl]-amine]
< 100 | 100 to 1000 |  |  | COc1cc(N2CCC(N3CCOCC3)CC2)ccc1Nc1ncc2ccc(-c3ccccc3C(F)(F)F)n2n1 [Example 1464, [2-Methoxy-4-(4-morpholin-4-yl-piperidin-1-yl)-phenyl]-[7-(2-trifluoromethyl-phenyl)-pyrrolo[2,1-f][1,2,4]triazin-2-yl]-amine]
 |  | < 100 | < 100 | COc1ccccc1-c1ccc2cnc(Nc3ccc(C4CCNC4)cc3)nn12 (stereo not shown) [Example 1012, [7-(2-Methoxy-phenyl)-pyrrolo[2,1-f][1,2,4]triazin-2-yl]-(4-pyrrolidin-3-yl-phenyl)-amine]
1000 to 10000 | < 100 |  |  | CS(=O)(=O)Nc1ccccc1-c1ccc2cnc(Nc3cccc(N4CCOCC4)c3)nn12 [Example 431, N-{2-[2-(3-Morpholin-4-yl-phenylamino)-pyrrolo[2,1-f][1,2,4]triazin-7-yl]-phenyl}-methanesulfonamide]
100 to 1000 | < 100 |  |  | CC1(C)CCC(=O)Nc2cc(Nc3ncc4ccc(-c5cccc(NS(C)(=O)=O)c5)n4n3)ccc21 [Example 381, N-{3-[2-(5,5-Dimethyl-2-oxo-2,3,4,5-tetrahydro-1H-1-benzazepin-8-ylamino)-pyrrolo[2,1-f][1,2,4]triazin-7-yl]-phenyl}-methanesulfonamide]
100 to 1000 | < 100 |  |  | C[C@H](O)CN1CCN(c2ccc(Nc3ncc4ccc(-c5ccccc5NS(C)(=O)=O)n4n3)cc2)CC1 [Example 430, N-[2-(2-{4-[4-((S)-2-Hydroxy-propyl)-piperazin-1-yl]-phenylamino}-pyrrolo[2,1-f][1,2,4]triazin-7-yl)-phenyl]-methanesulfonamide]
1000 to 10000 | < 100 |  |  | c1cc(N2CCOCC2)ccc1Nc1ncc2ccc(-c3ccc4c(c3)OCCO4)n2n1 [Example 5, [7-(2,3-Dihydro-benzo[1,4]dioxin-6-yl)-pyrrolo[2,1-f][1,2,4]triazin-2-yl]-(4-morpholin-4-yl-phenyl)-amine]
1000 to 10000 | < 100 |  |  | CS(=O)(=O)CCNC(=O)c1ccc(-c2ccc3cnc(Nc4ccc(N5CCOCC5)cc4)nn23)cc1 [Example 117, N-(2-Methanesulfonyl-ethyl)-4-[2-(4-morpholin-4-yl-phenylamino)-pyrrolo[2,1-f][1,2,4]triazin-7-yl]-benzamide]
 |  | 1000 to 10000 | < 100 | COc1ccccc1-c1ccc2cnc(Nc3ccc4nc(C(F)(F)F)[nH]c4c3)nn12 [Example 1305]
 |  | 100 to 1000 | < 100 | CN1CCN(c2ccc(Nc3ncc4ccc(-c5ccc(C=O)cc5)n4n3)cc2)CC1 [Example 1203, 4-{2-[4-(4-Methyl-piperazin-1-yl)-phenylamino]-pyrrolo[2,1-f][1,2,4]triazin-7-yl}-benzaldehyde]
 |  | 100 to 1000 | 1000 to 10000 | COc1cc(N2CCC(N3CCOCC3)CC2)ccc1Nc1ncc2ccc(-c3c(OC)cccc3OC)n2n1 [Example 542, [7-(2,6-Dimethoxy-phenyl)-pyrrolo[2,1-f][1,2,4]triazin-2-yl]-[2-methoxy-4-(4-morpholin-4-yl-piperidin-1-yl)-phenyl]-amine]
 |  | < 100 | < 100 | CN1CCN(c2ccc(Nc3ncc4ccc(-c5ccccc5OCC#N)n4n3)cc2)CC1 [Example 1141, (2-{2-[4-(4-Methyl-piperazin-1-yl)-phenylamino]-pyrrolo[2,1-f][1,2,4]triazin-7-yl}-phenoxy)-acetonitrile]
 |  | 1000 to 10000 | < 100 | CN(C)S(=O)(=O)c1cccc(Nc2ncc3ccc(-c4cccc(S(=O)(=O)NC(C)(C)C)c4)n3n2)c1 [Example 592, 3-({7-[3-(tert-butylsulfamoyl)phenyl]pyrrolo[2,1-f][1,2,4]triazin-2-yl}amino)-N,N-dimethylbenzenesulfonamide]
 |  | < 100 | 1000 to 10000 | COc1cc(C2CCN(C[C@@H](O)CO)CC2)c(F)cc1Nc1ncc2ccc(-c3ccccc3N(C)S(C)(=O)=O)n2n1 [Example 551, N-[2-(2-{4-[1-((R)-2,3-Dihydroxy-propyl)-piperidin-4-yl]-5-fluoro-2-methoxy-phenylamino}-pyrrolo[2,1-f][1,2,4]triazin-7-yl)-phenyl]-N-methyl-methanesulfonamide]
 |  | 100 to 1000 | < 100 | CN1CCC(c2ccc(Nc3ncc4ccc(-c5cccc(S(C)(=O)=O)c5)n4n3)cc2)CC1 [Example 1120, [7-(3-Methanesulfonyl-phenyl)-pyrrolo[2,1-f][1,2,4]triazin-2-yl]-[4-(1-methyl-piperidin-4-yl)-phenyl]-amine]
 |  | < 100 | 1000 to 10000 | COc1cc2c(cc1Nc1ncc3ccc(-c4ccccc4N(C)S(C)(=O)=O)n3n1)CCC1(CCN(C)CC1)O2 [Example 996, N-(2-{2-[(7-methoxy-1′-methyl-3,4-dihydrospiro[chromene-2,4′-piperidin]-6-yl)amino]pyrrolo[2,1-f][1,2,4]triazin-7-yl}phenyl)-N-methylmethanesulfonamide]
< 100 | < 100 |  |  | CN1CCN(c2ccc(Nc3ncc4ccc(-c5cccc(Cl)c5)n4n3)cc2)CC1 [Example 26, [7-(3-Chloro-phenyl)-pyrrolo[2,1-f][1,2,4]triazin-2-yl]-[4-(4-methyl-piperazin-1-yl)-phenyl]-amine]
100 to 1000 | < 100 |  |  | CN(c1ccccc1-c1ccc2cnc(Nc3cccc(N4CCOCC4)c3)nn12)S(C)(=O)=O [Example 410, N-Methyl-N-{2-[2-(3-morpholin-4-yl-phenylamino)-pyrrolo[2,1-f][1,2,4]triazin-7-yl]-phenyl}-methanesulfonamide]

Compound | IC50 ([1]; ALK Kinase Inhibition) [nM] | IC50 ([2]; JAK2 Kinase Inhibition) [nM] | IC50 [1, 3] [nM] | IC50 [2, 4] [nM]
CN1CCN(c2cccc(Nc3ncc4ccc(-c5cccc(COC(C)(C)C)c5)n4n3)c2)CC1 [Example 1558, [7-(3-tert-Butoxymethyl-phenyl)-pyrrolo[2,1-f][1,2,4]triazin-2-yl]-[3-(4-methyl-piperazin-1-yl)-phenyl]-amine] | 100 to 1000 | < 100 |  | 
